Measurements taken from patent US11319300B2, “Polyfluoro-substituted aromatic heterocyclic derivative, pharmaceutical composition containing same, and applications thereof” (ZHEJIANG UNIVERSITY, priority 2017, dated 2022).
Counter-ions that a name gives are not always drawn. Marks after values point to notes of the source that are not given here.

Tests used:
MCF-7 = experiment: Tumour cell proliferation inhibition, MTT assay, MCF-7; format: cell-based, human
CEM-C1 = experiment: Tumour cell proliferation inhibition, MTT assay, CEM-C1; format: cell-based, human
786-O = experiment: Tumour cell proliferation inhibition, MTT assay, 786-O; format: cell-based, human
HCT-116 = experiment: Tumour cell proliferation inhibition, MTT assay, HCT-116; format: cell-based, human
Method: (§1) Compound AZD5363 (NCT02208375, NCT02208375, NCT01625286), which have entered the clinical phase II study, was used as a positive control, and the compound was assayed against common tumour cell lines (human ovarian cancer cell line OVCAR-8 and human colon cancer cell line HCT-116) by MTT assay, at the same time, the akt1 enzyme inhibitory activity (IC50) was evaluated using a commercial Akt1 kit.
1) The pharmacological test method for the tumour cell proliferation inhibiting activity of the compound of the present invention was as follows:
The first was the determination of in vitro tumour growth inhibitory activity and the preliminary structure-activity relationship study, and different solid tumour cell lines were used to determine the in vitro antitumour activity of the synthesized compounds.
Experimental materials: cell lines: human ovarian cancer cells (OVCAR8), colon adenocarcinoma cells (HCT-116),
Medium: OVCAR8: RPMI 1640+fetal calf serum
Drug preparation method: dissolving the drug in DMSO to make a 50 mM of stock solution, and diluting it to a certain ratio to obtain 5 different concentrations.
Tumour Cells being Cultured In Vitro:
The selected tumour cells were incubated in a, 5% of CO2 cell incubator at 37° C., and passaged until the cell density was 70 to 90% (the adherent cells were passaged with Duck's EDTA) and used for subsequent experiments.
The compound was dissolved in dimethyl sulfoxide (DMSO), diluted, and tumour cells were seeded into 4000 cells/200 μL/well in 96-well plates, and 1 μL of compound was added to each well to a final concentration of 50 μM, 10 μM, 2 μM, and 0.4 μM. 0.08 μM were incubated in a, 5% of CO2 cell incubator at 37° C. for 72 hours with DMSO (1%) as a blank control.
The calculation formula of the cell inhibition rate is: cell inhibition rate %=(control group OD value−drug group OD value)/control cell OD value×100%, and the half inhibition concentration (IC50) was determined by the Bliss method.

HGC27 = experiment: Tumour cell proliferation inhibition, MTT assay, HGC27; format: cell-based, human
AKT1/PKBα = biological target: T1, AKT1/PKBα (Homo sapiens, UniProt P31749); experiment: Akt1 enzyme inhibitory activity, AKT1/PKBα KinEASE FP Fluorescein Green Assay; format: biochemical; conditions: fluorescence polarization kit assay; read-out: Akt1 IC50 (grade)
T1 construct: purchased
Method: as §1
2) Test method for the inhibitory activity of the compound of the present invention against Akt1 enzyme:
The AKT1/PKBα KinEASE™ FP Fluorescein Green Assay (Kinase Green Fluorescence Detection System) was used to detect the inhibitory activity of the compound on AKT1/PKBα.
Fluorescence polarization detection protein kinase B employs the principle of a competitive reaction: a fluorescently labeled phosphorylated tracer and an unlabeled phosphorylated product produced by the reaction of protein kinase B will compete with the anti-serine antibody for binding. In a reaction mixture […], when a part of the fluorescent tracer binds to the antibody, it causes a higher polarization value. However, in the reaction solution mixture containing the phosphorylated product, less tracer binds to the antibody (the fluorescent tracer was replaced from the antibody) and the emitted signal was depolarized. Therefore, the change in polarization was directly related to the activity of protein kinase B in the reaction.
The compound of the present invention and the positive control AZD5363 were dissolved in dimethyl sulfoxide (DMSO) and diluted to a concentration of 50 μM. At room temperature, 0.25 μl of the compound sample and the positive control at a concentration of 50 μM were taken and added to the 384-well plate, and three parallel wells were set for each sample, and then 10 μl of STK Substrate 3, Working Solution, 5 μl AKT1/PKBα Working Solution, 10 μl ATP Working Solution were added to each sample well plate with vibrating gently and shaking for a few minutes. The reaction starts after 10 μl of ATP Working Solution was added to the well, and the reaction was timed at room temperature for 1 hour. After one hour, 5 μl of STK Stop Mix and 5 μl of STK Antibody Mix were added to each well respectively to stop the reaction. After the addition completes, it was allowed to stand at room temperature for four hours, and the polarization value of the sample was detected by the fluorescence polarization of the microplate reader (it was effective to detect its signal within 24 hours), and the inhibition rate of the compound was calculated by the polarization value, and then IC50 was calculated.
Four sets of controls were set in the experiment, namely Buffer Control Wells, Tracer Control Wells, No Enzyme Wells, and a blank dimethyl sulfoxide control. The resulting data was used to calculate the inhibition rate.
The activity of the compound was divided into three grades according to the size of the IC50 of the Akt inhibitory activity: “+++”, 1 nM<IC50<10 nM; “++”, 10 nM<IC50<50 nM; “+”, 50 nM<IC50.

hERG potassium channel = biological target: T2, hERG potassium channel (Homo sapiens, UniProt Q12809); experiment: hERG potassium channel inhibition, manual whole-cell patch clamp in CHO hERG cells; format: cell-based; conditions: 3 μM, CHO hERG cells, patch clamp
T2 construct: host or cells: CHO
Method: A Sixty-Third Embodiment: hERG Potassium Channel Inhibition Activity Experiment
The cells used in this assay were CHO cell lines transfected with hERG cDNA and stably expressing the hERG channel (supplied by Sophion Bioscience, Denmark). The cells were cultured in medium containing the following components (all from Invitrogen): Ham's F12 medium, 10% (v/v) inactivated fetal bovine serum, 100 μg/ml hygromycin B, and 100 μg/ml Geneticin. 2.1.2CHO hERG cells were grown in a Petri dish containing the above culture solution, and cultured in an incubator containing 5% of CO2 at 37° C. 24 to 48 hours prior to electrophysiological experiments, CHO hERG cells were transferred to circular glass slides placed in petri dishes and grown under the same culture and culture conditions as above. The density of CHO hERG cells on each circular slide requires that most cells achieve independent, individual requirements.
2. Compound Treatment and Dilution
To obtain the IC50 of the compound, we selecte the following concentrations (30, 10, 3, 1, 0.3, and 0.1 μM) for testing. Prior to testing, the […] were first diluted to 10, 3, 1, 0.3, and 0.1 mM stock solution in gradual dilution with DMSO and then diluted to the final μM test concentration with extracellular fluid. The final concentration of DMSO in each of the other compound solutions was 0.1% except that the DMSO concentration in the 30 μM compound test solution was 0.3%. The positive control Cisapride (cishabili) was tested at a concentration of 0.1 μM. All compound solutions were sonicated and shaken for 5 to 10 minutes to ensure complete dissolution of the compound.
3. Electrophysiological Recording System and Data Analysis
This experiment uses a manual patch clamp system (HEKA EPC-10 signal amplifier and digital conversion system, purchased from HEKA Electronics, Germany) for the recording of whole cell currents. Round slide with CHO hERG cells on the surface was placed in an electrophysiology recording cell under an inverted microscope. The extracellular fluid was continuously perfused in the recording tank (about 1 ml per minute). The experimental procedure uses conventional whole-cell patch clamp current recording techniques. Unless otherwise stated, the experiments were carried out at regular room temperature (˜25° C.). The cells were clamped at a voltage of −80 mV. The cell clamp voltage was depolarized to +20 mV to activate the hERG potassium channel, and after 5 seconds it was clamped to −50 mV to eliminate inactivation and generate tail current. The tail current peak was used as the value of the hERG current magnitude. After the hERG potassium current recorded in the above step was stabilized under the continuous extracellular fluid perfusion in the recording tank, the drug to be tested can be superimposed and filled until the inhibitory effect of the drug on the hERG current reaches a steady state. Generally, the recent three consecutive current recording lines were recombined as a criterion for judging whether or not the state is stable. After reaching a steady state, extracellular fluid perfusion rinse until hERG current returns to the size before adding drug. One cell can test one or more drugs, or multiple concentrations of the same drug, but need to be flushed with extracellular fluid between different drugs. Cisapride (cisapride, purchased from Sigma) was used in the experiment as a positive control to ensure that the cells used were of normal quality. The test data was analysed by HEKA Patchmaster, Microsoft Excel and data analysis software provided by Graphpad Prism.

[1] = tested on: human gastric cancer HGC27 nude mice xenografts; experiment: In vivo antitumour activity, human gastric cancer HGC27 nude mice xenografts; conditions: HGC27 xenograft, 50 mg/kg intragastric once a day
Method: A Sixty-Fifth Embodiment: In Vivo Antitumour Activity of Compounds
1) Establishment of a nude mouse xenograft model: 1×10^7 test tumour cells were injected into the armpit of nude mice, after three generations, HGC27 mouse tumour blocks were dissected and placed in a glass dish containing physiological saline, after the necrotic area was removed by incision, the tumour mass was cut into 1-2 mm^3 and inserted into the left axilla of the nude mouse with a trocar.
2) Animal grouping and drug delivery arrangements: after the tumour grows to an average volume of 100-300 mm^3, 20 mice were randomly grouped according to the tumour volume, and the above test animals were given the corresponding test substances by intragastric administration at a dose of 10 mL/kg with once a day.
3) Data measurement and statistics: The tumour volume was weighed and measured twice and dosing period was 21 days. On the 22nd day, after the body weight was weighed and the tumour volume was measured, the nude mice were sacrificed and the tumours were weighed to calculate the relative tumour volume (RTV), relative tumour growth rate (T/C) and tumour inhibition percentage (IR) for statistical testing. The calculation formula was as follows: (a) TV (tumour volume)=½×a×b^2, wherein a and b represent the length and width of the tumour respectively, (b) RTV (relative tumour volume)=Vt/V0, Where V0 is the tumour volume measured at the time of group administration (i.e. d0), Vt is the tumour volume at each measurement, (c) T/C (%)=TRTV/CRTV×100%, wherein TRTV is the RTV of treatment group, CRTV is the RTV of the solvent control group, (d) IR (%)=(1−TWt/TWc)×100%, wherein TWt is the tumour weight of the treatment group, and TWc is the tumour weight of the solvent control group.

T1 sequence (P31749 whole entry): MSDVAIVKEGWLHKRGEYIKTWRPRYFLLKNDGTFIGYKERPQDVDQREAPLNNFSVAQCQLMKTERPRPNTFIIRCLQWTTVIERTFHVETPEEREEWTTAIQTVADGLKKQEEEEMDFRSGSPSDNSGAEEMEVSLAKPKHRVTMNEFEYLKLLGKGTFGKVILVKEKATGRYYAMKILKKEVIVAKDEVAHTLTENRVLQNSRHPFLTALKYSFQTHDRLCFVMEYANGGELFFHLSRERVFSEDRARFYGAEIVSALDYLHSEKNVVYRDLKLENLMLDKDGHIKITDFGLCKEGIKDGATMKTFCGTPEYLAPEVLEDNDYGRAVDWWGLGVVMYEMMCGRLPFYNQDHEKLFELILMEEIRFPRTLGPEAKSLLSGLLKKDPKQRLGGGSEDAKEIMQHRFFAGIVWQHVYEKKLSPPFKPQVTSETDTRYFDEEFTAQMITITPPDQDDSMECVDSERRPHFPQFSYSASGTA
T2 sequence (Q12809 whole entry): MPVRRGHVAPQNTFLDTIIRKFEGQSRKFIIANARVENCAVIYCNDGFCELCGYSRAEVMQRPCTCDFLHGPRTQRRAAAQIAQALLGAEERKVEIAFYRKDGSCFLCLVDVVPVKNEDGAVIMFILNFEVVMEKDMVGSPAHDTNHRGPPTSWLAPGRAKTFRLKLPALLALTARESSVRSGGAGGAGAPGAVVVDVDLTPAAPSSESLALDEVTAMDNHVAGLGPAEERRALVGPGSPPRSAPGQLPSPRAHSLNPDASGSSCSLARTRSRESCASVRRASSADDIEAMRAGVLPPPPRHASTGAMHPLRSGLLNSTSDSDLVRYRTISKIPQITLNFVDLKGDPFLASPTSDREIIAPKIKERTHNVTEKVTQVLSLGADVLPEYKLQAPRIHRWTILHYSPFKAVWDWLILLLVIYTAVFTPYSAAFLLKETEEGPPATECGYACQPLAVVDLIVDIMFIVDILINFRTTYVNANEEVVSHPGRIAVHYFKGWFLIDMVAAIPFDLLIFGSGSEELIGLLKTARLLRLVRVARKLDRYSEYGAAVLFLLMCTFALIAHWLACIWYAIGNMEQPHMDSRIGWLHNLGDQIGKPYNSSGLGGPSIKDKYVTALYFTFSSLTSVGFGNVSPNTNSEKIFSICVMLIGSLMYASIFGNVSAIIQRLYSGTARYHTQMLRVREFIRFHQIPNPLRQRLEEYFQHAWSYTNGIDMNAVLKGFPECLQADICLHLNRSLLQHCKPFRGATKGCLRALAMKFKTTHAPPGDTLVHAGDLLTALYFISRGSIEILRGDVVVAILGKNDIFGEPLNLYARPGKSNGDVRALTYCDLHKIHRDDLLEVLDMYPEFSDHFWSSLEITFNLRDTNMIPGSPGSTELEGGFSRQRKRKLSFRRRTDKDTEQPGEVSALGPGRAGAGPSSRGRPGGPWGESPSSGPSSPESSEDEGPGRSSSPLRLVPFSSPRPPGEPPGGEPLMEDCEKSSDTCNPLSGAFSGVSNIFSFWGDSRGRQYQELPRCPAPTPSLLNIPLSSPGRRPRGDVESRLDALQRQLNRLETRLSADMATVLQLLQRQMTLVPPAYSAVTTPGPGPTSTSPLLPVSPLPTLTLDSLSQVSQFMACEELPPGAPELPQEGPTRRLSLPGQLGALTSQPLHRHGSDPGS

SMILES | IC50 (MCF-7; Homo sapiens, MCF7, 72 h) | IC50 (CEM-C1; Homo sapiens, CEM/C1, 72 h) | IC50 (786-O; Homo sapiens, 786-0, 72 h) | IC50 (HCT-116; Homo sapiens, HCT-116, 72 h) | IC50 (HGC27; Homo sapiens, HGC-27, 72 h) | IC50 (AKT1/PKBα) | further results
Cn1nccc1-c1ccc(C(=O)N[C@@H]2CNCC[C@H]2c2ccc(F)c(F)c2)cc1 [drawing 115, reference compound] |  |  |  |  |  |  | RTV [1]: 22.60 ± 12.41; T/C(%) [1]: 53.75%; Tumour volume D1 ([1]; D1 (start)): 216 ± 98 mm^3; Tumour volume D22 ([1]; D22): 1650 ± 720* mm^3
Cn1nccc1-c1ccc(C(=O)N[C@@H]2CNCC[C@H]2c2ccc(F)c(F)c2)cc1 [drawing 111, reference compound] | 10600 nM | 620 nM | 2060 nM | 10500 nM | 190 nM | 10 to 50 nM | 
Cn1nccc1-c1ccc(C(=O)N[C@@H]2CNCC[C@H]2c2ccc(F)c(F)c2)c(F)c1 [VII-34, D-tartrate] |  |  |  |  |  | 1 to 10 nM | IC50 (MCF-7; 72 hours, D-tartrate): 3090 nM; IC50 (CEM-C1; 72 hours, D-tartrate): 130 nM; IC50 (786-O; 72 hours, D-tartrate): 1060 nM; IC50 (HCT-116; 72 hours, D-tartrate): 2150 nM; IC50 (HGC27; 72 hours, D-tartrate): 30 nM
Cn1nccc1-c1ccc(C(=O)N[C@@H]2CNCC[C@H]2c2ccc(F)c(F)c2)c(F)c1.O=C(O)C(O)C(O)C(=O)O [VII-33, L-tartrate] |  |  |  |  |  | 1 to 10 nM | IC50 (MCF-7; 72 hours, L-tartrate): 2250 nM; IC50 (CEM-C1; 72 hours, L-tartrate): 90 nM; IC50 (786-O; 72 hours, L-tartrate): 820 nM; IC50 (HCT-116; 72 hours, L-tartrate): 3100 nM; IC50 (HGC27; 72 hours, L-tartrate): 40 nM
Cn1ncc(Cl)c1-c1cc(C(=O)N[C@H]2CNCC[C@@H]2c2ccc(F)c(F)c2)oc1Cl (racemic) [reference compound] |  |  |  |  |  |  | hERG (Inhibition rate at 3 μM concentration) (hERG potassium channel): 62%
Cn1ncc(Cl)c1-c1ccc(C(=O)N[C@@H]2CNCC[C@H]2c2ccc(F)c(F)c2)cc1F [reference compound] | 6320 nM | 570 nM | 1280 nM | 5860 nM | 120 nM | 10 to 50 nM | 
Cn1ncc(Cl)c1-c1ccc(C(=O)N[C@@H]2CNCC[C@H]2c2ccc(Cl)cc2)c(C(F)(F)F)c1 [reference compound] | 5130 nM | 440 nM | 2990 nM | 6150 nM | 180 nM | 1 to 10 nM | 
Cn1nccc1-c1ccc(C(=O)N[C@@H]2CNCC[C@H]2c2ccc(F)c(F)c2)c(F)c1 [VII-37, citrate] |  |  |  |  |  | 1 to 10 nM | IC50 (MCF-7; 72 hours, citrate): 1360 nM; IC50 (CEM-C1; 72 hours, citrate): 110 nM; IC50 (786-O; 72 hours, citrate): 670 nM; IC50 (HCT-116; 72 hours, citrate): 1060 nM; IC50 (HGC27; 72 hours, citrate): 50 nM

More lines, main results first:

IC50 (MCF-7; Homo sapiens, MCF7, 72 h) | IC50 (CEM-C1; Homo sapiens, CEM/C1, 72 h) | IC50 (786-O; Homo sapiens, 786-0, 72 h) | IC50 (HCT-116; Homo sapiens, HCT-116, 72 h) | IC50 (HGC27; Homo sapiens, HGC-27, 72 h) | IC50 (AKT1/PKBα) | SMILES | further results
1180 nM | 20 nM | 550 nM | 990 nM | 30 nM | 1 to 10 nM | Cn1nccc1-c1cc(F)c(C(=O)N[C@@H]2CNCC[C@H]2c2ccc(F)c(F)c2)cc1F [VII-18] | hERG (Inhibition rate at 3 μM concentration) (hERG potassium channel): 17.6%
2840 nM | 90 nM | 990 nM | 2390 nM | 60 nM | 10 to 50 nM | Cn1ncc(F)c1-c1ccc(C(=O)N[C@@H]2CNCC[C@H]2c2ccc(F)c(F)c2)c(F)c1 [VII-7] | 
1850 nM | 120 nM | 1650 nM | 1520 nM | 20 nM | 1 to 10 nM | Cn1nccc1-c1ccc(C(=O)N[C@@H]2CNCC[C@H]2c2cc(F)c(F)c(F)c2)c(F)c1 [VII-8] | hERG (Inhibition rate at 3 μM concentration) (hERG potassium channel): 11.8%
